Assay results: PMC3835334 (ACS medicinal chemistry letters, 2013)

tested on: JMAR, MDA-MB-231, SKMEL-28, DRO81-1 and MRC-5 cells; test: not given; details: not given

Row | SMILES | Increased cytotoxicity compared to 1 | Cytotoxic activity in words
1 | CC(=O)OCC1=C(C)C[C@H]([C@@H](C)[C@H]2CC[C@H]3[C@@H]4C[C@H]5O[C@]56[C@@H](OC(=O)N(C)C)C=CC(=O)[C@]6(COC(C)=O)[C@H]4CC[C@]23C)OC1=O [Compound 15] | 3–5 times | 
2 | CC(=O)OCC1=C(C)C[C@H]([C@@H](C)[C@H]2CC[C@H]3[C@@H]4C[C@H]5O[C@]56CC=CC(=O)[C@]6(COC(C)=O)[C@H]4CC[C@]23C)OC1=O [Compound 17, Jaborosalactone V diacetate] |  | equipotent to withaferin A
3 | CC1=C(CO)C(=O)O[C@@H]([C@@H](C)[C@H]2CC[C@H]3[C@@H]4C[C@H]5O[C@]56[C@@H](O)C=C(I)C(=O)[C@]6(CO)[C@H]4CC[C@]23C)C1 [Compound 21] |  | very weak activity
4 | CC1=C(CO)C(=O)O[C@@H]([C@@H](C)[C@H]2CC[C@H]3[C@@H]4C[C@H]5O[C@]56[C@@H](OC(=O)c5ccc(Cl)cc5)C=CC(=O)[C@]6(CO)[C@H]4CC[C@]23C)C1 [Compound 10] |  | active
5 | CC(=O)OCC1=C(C)C[C@H]([C@@H](C)[C@H]2CC[C@H]3[C@@H]4C[C@@H](O)C5=CC=CC(=O)[C@]5(COC(C)=O)[C@H]4CC[C@]23C)OC1=O [Compound 18] |  | abolished
6 | CC1=C(COC(=O)c2ccc(Cl)cc2)C(=O)O[C@@H]([C@@H](C)[C@H]2CC[C@H]3[C@@H]4C[C@H]5O[C@]56[C@@H](O)C=CC(=O)[C@]6(COC(=O)c5ccc(Cl)cc5)[C@H]4CC[C@]23C)C1 [Compound 11] |  | active

tested on: JMAR, MDA-MB-231, SKMEL-28, DRO81-1 and MRC-5 cells; test: cells; details: read-out: IC50 values against melanoma and carcinoma cells

Row | SMILES | IC50 [µM]
7 | CC(=O)OCC1=C(C)C[C@H]([C@@H](C)[C@H]2CC[C@H]3[C@@H]4C[C@@H](O)[C@@]5(Cl)CC=CC(=O)[C@]5(COC(C)=O)[C@H]4CC[C@]23C)OC1=O [Compound 19] | 0.8 to 2.16

same assay, conditions: read-out: IC50 values over all cell lines tested

Row | SMILES | IC50 [µM]
8 | CC1=C(COC(=O)c2ccc(Cl)cc2)C(=O)O[C@@H]([C@@H](C)[C@H]2CC[C@H]3[C@@H]4C[C@H]5O[C@]56[C@@H](OC(=O)c5ccc(Cl)cc5)C=CC(=O)[C@]6(CO)[C@H]4CC[C@]23C)C1 [Compound 12] | > 10
9 | CCC(=O)OCC1=C(C)C[C@H]([C@@H](C)[C@H]2CC[C@H]3[C@@H]4C[C@H]5O[C@]56[C@@H](OC(=O)CC)C=CC(=O)[C@]6(COC(=O)CC)[C@H]4CC[C@]23C)OC1=O [Compound 9, withalongolide A 4,19,27-propionate] | 0.13 to 1
10 | CC(=O)OC[C@]12C(=O)C=C[C@H](OC(=O)c3ccc(Cl)cc3)[C@]13O[C@@H]3C[C@H]1[C@@H]3CC[C@H]([C@H](C)[C@H]4CC(C)=C(COC(=O)c5ccc(Cl)cc5)C(=O)O4)[C@@]3(C)CC[C@@H]12 [Compound 16] | > 10
11 | CC(=O)OCC1=C(C)C[C@H]([C@@H](C)[C@H]2CC[C@H]3[C@@H]4C[C@@H](O)C5=CC=CC(=O)[C@]5(COC(C)=O)[C@H]4CC[C@]23C)OC1=O [Compound 18] | > 10
12 | CC(=O)OCC1=C(C)C[C@H]([C@@H](C)[C@H]2CC[C@H]3[C@@H]4C[C@H]5O[C@]56[C@@H]5C=CC(=O)[C@]6(COC(=O)CC/C=C/CCC(=O)O5)[C@H]4CC[C@]23C)OC1=O [Compound 24] | 0.205 to 0.965
13 | CC1=C(COC(=O)c2ccc(Cl)cc2)C(=O)O[C@@H]([C@@H](C)[C@H]2CC[C@H]3[C@@H]4C[C@H]5O[C@]56[C@@H](OC(=O)c5ccc(Cl)cc5)C=CC(=O)[C@]6(COC(=O)c5ccc(Cl)cc5)[C@H]4CC[C@]23C)C1 [Compound 13] | > 10
14 | CC(=O)OCC1=C(C)C[C@H]([C@@H](C)[C@H]2CC[C@H]3[C@@H]4C[C@@H](OC(C)=O)C5=CC=CC(=O)[C@]5(COC(C)=O)[C@H]4CC[C@]23C)OC1=O [Compound 20] | > 10
